The source of these data is publication PMC8707461, “In Vitro and In Vivo Inhibition of MATE1 by Tyrosine Kinase Inhibitors” (Pharmaceutics, 2021).

The target of series [1] is T1, MATE1 (Homo sapiens, UniProt Q96FL8).
T1 sequence (Q96FL8 1-570): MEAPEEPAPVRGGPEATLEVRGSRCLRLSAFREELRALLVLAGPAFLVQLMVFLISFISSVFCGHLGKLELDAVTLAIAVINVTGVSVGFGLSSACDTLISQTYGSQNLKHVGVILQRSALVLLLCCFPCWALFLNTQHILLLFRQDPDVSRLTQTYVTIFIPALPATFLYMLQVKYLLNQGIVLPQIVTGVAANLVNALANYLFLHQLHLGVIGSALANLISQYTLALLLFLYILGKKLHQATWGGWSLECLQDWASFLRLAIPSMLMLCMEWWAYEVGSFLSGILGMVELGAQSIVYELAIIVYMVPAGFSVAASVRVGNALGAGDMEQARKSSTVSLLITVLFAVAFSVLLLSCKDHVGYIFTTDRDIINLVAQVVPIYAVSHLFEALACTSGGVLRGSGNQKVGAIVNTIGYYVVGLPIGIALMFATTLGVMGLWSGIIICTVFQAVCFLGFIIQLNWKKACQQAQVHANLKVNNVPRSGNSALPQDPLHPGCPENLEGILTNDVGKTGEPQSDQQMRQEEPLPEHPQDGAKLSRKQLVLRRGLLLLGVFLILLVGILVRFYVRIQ
In words: [14C]TEA uptake in HEK293 cells overexpressing human MATE1. On the procedure:
(§1) Uptake experiments in HEK293 cells overexpressing mouse (m) and human (h) OCT2 or MATE1 were performed with radiolabeled tetraethylammonium (TEA) as the model substrate, using standard methods in the presence or absence of TKIs. The cell culture and uptake conditions for cells expressing mMATE1 or hMATE1 were described previously. […] Since the inhibitory potential of various xenobiotics against OCT2 and MATE1 is dependent on preincubation with perpetrator drugs, a 15-min preincubation period with the TKIs was employed unless stated otherwise. All results were normalized to uptake values in cells transfected with an empty vector or DMSO-treated groups.
(§2) MATE1-overexpressed cells were pre-incubated with transport media containing 30 mM ammonium chloride for 20 min at 37 °C following previously published protocol (pH 7.4 for hMATE1 [17, 18, 19] and pH 8.4 for mMATE1 [20, 21]) to ensure interactions can be evaluated between outward-facing MATE1 and substrate uptake before adding inhibitors. Then, preincubation media was removed and cells were incubated with transport media (NH4Cl free) containing radiolabeled compounds. […] The uptake of TEA and metformin was measured by liquid scintillation counting, as described previously. For uptake studies involving platinum drugs, cells were collected with TrypLE, and the pellets were lysed overnight in 0.2% nitric acid. After sonication, total platinum levels were determined by flameless atomic absorption spectrometry.

For another series, the system named is MATE1 gene. In words: MATE1 gene expression by RT-PCR in MATE1-overexpressing cells exposed to TKIs. It counts as cell-based, human. The text has this: RNA was extracted using the Qiagen kit from treated cells in 12-well plates or kidney tissues obtained from untreated or treated mice. Taqman primers Hs00217320_m1 and Mm00840361_m1 were obtained from Thermo Fisher Scientific (Waltham, MA, USA) and used for the hMATE1 and mMATE1 genes. The primers Hs02786624_g1 and Mm99999915_g1 were used as the house-keeping control genes for hGAPDH and mGAPDH, respectively.

For series [2], the system named is human OCT2, or MATE1 transporters. Particulars: dasatinib 10 µM, oxaliplatin 50 µM. On the procedure: as §1
as §2, with “For uptake studies involving platinum drugs, cells were collected with TrypLE, and the pellets were lysed overnight in 0.2% nitric acid.” left out

Series [3] relates to mouse OCT2, or MATE1 transporters. Particulars: dasatinib 10 µM, oxaliplatin 50 µM. On the procedure:
as §1
as §2, with “For uptake studies involving platinum drugs, cells were collected with TrypLE, and the pellets were lysed overnight in 0.2% nitric acid.” left out

The test system of series [4] is MATE1. In words: Plasma N-methylnicotinamide (NMN) as MATE1 biomarker in mice after dasatinib. It counts as in vivo, mouse. Particulars: wild-type mice, dasatinib 15 mg/kg oral.
Details of series [5]: method as in PMID 18787054. Particulars: cited from earlier work.
The subject of series [6] is MATE1. Particulars: cited from earlier work.
Series [7] can be described thus: Murine plasma pharmacokinetics of total platinum. It counts as in vivo, mouse. An excerpt: For pharmacokinetic studies, plasma and tissue samples were collected from male wild-type mice (8–12 weeks old), and age-matched MATE1-deficient [MATE1(−/−)] mice, and mice additionally deficient for OCT1 and OCT2 [OCT1/2/MATE1(−/−)], following an established protocol. All animals were backcrossed on an FVB strain, were given a standard diet and water ad libitum, and housed and handled in accordance with the University Laboratory Animal Resources (ULAR) Animal Care and Use Committee at The Ohio State University (2015A00000101-R1). […] Concentrations of total platinum in plasma and tissues were measured by flameless atomic absorption spectrometry, as previously reported, by interpolation of unknown readings on linear calibration curves prepared in drug-free nitric acid (0.2%) using linear-least squares regression analysis.

Series [8] is described as follows: Human plasma pharmacokinetics of total platinum, patient with colorectal cancer. It counts as in vivo. Particulars: oxaliplatin 85 mg/m2 i.v. infusion. Here is the method: In order to assess the degree of MATE1 inhibition by dasatinib, analyses of N-methylnicotinamide (see below) were performed in plasma samples collected at serial time points (up to 24 h after the end of infusion). Plasma samples were also subjected to dasatinib analysis by liquid chromatography with tandem mass spectrometric detection (LC-MS/MS) and analyzed for total platinum levels by flameless atomic absorption spectrometry. The study protocol (ClinicalTrial.gov Identifier: NCT04164069) was approved by the institutional review board of the -The Ohio State University Comprehensive Cancer Center (OSU IRB #2019C0141, approval date 01 March 2019), and the patient provided written informed consent prior to enrollment.

Series [9] is described as follows: Urinary excretion of oxaliplatin in mice (metabolic cages). It counts as in vivo, mouse. Particulars: mice deficient in MATE1 or both OCT2 and MATE1 vs wild-type; oxaliplatin 10 mg/kg i.p.
The conditions of series [10]: cited from earlier work.
Setting [11] is: OCT1,2/MATE1-/- mice + dasatinib 15 mg/kg p.o. pretreatment, oxaliplatin 10 mg/kg i.p.
The mark [12] stands for this setting: OCT1,2/MATE1-/- mice, cisplatin 15 mg/kg i.p. or oxaliplatin 10 mg/kg i.p.
The mark [13] stands for this setting: wild-type mice + dasatinib 15 mg/kg p.o. pretreatment, oxaliplatin 10 mg/kg i.p.
[14] abbreviates: wild-type mice, cisplatin 15 mg/kg i.p. or oxaliplatin 10 mg/kg i.p.
Where [15] appears, read: dasatinib pre-treatment 100 mg p.o.

For the compound `Cc1nc(Nc2ncc(C(=O)Nc3c(C)cccc3Cl)s2)cc(N2CCN(CCO)CC2)n1` [Dasatinib], the “inhibition of MATE1-mediated uptake of TEA (in words)” value at MATE1 [1] (TKI 10 µM) is “completely inhibited”. Also, at MATE1 [1] (human, HEK293 cells overexpressing human MATE1, pH 7.4, probe [14C]TEA (tetraethylammonium), 2 µM), the inhibition (commonly the relative decrease from the control value, in per cent) at 10 µM was determined as 95.4%. Moreover, in the series on MATE1 gene, the “expression of MATE1 (in words)” value is recorded as “downregulated” and the “suppression of MATE1 gene expression” value is ~ 50%. Further, the “ability of cells to transport oxaliplatin after dasatinib pre-treatment (in words)” value in [2] is recorded as “dramatically impaired”. Also, the “ability of cells to transport oxaliplatin after dasatinib pre-treatment (in words)” value in series [3] is reported as “dramatically impaired”. In the series on MATE1 [4], the “plasma levels of NMN (in words)” value is recorded as “transient, statistically significant increase”. Besides, in [5], the kidney-to-blood concentration ratio is reported as […]. Moreover, the IC50 (commonly the midpoint of a concentration-inhibition curve) in the series with MATE1 [6] is […].

As to `O=C1[O][Pt]2([NH][C@@H]3CCCC[C@H]3[NH]2)[O]C1=O` [Oxaliplatin], the AUC (as a rule, the area under the concentration-time curve, a measure of exposure) in series [7] (setting [11]) came out at 7530 ± 900 ng·h/mL; in [7] (setting [12]), 10500 ± 10 ng·h/mL; in series [7] (setting [13]) it was 12200 ± 710 ng·h/mL; in [7] (setting [14]) it was 10700 ± 1000 ng·h/mL; in series [8] (setting [15]) it was 11600 ng·h/mL; in series [8] (without dasatinib), 11300 ng·h/mL. In addition, the Cmax (as a rule, the maximum level reached in the sampled fluid or tissue) in series [7] (setting [11]) came to 3860 ± 10 ng/mL; in [7] (setting [12]), 3610 ± 180 ng/mL; in series [7] (setting [13]) it was 4800 ± 10 ng/mL; in series [7] (setting [14]), 2760 ± 40 ng/mL; in [8] (setting [15]), 870 ng/mL; in series [8] (without dasatinib), 960 ng/mL. In series [7] (wild-type mice, single dose of dasatinib 15 mg/kg), the “plasma pharmacokinetic profile after dasatinib pretreatment (in words)” value was “unchanged”. Also, the “reduction of urinary excretion” value in [9] is on record as “about 2 fold”. Besides, the fecal excretion result in series [10] is “about 2 % of the dose”. Besides, in series [10], the urinary excretion was > 50 % of the dose.
